Source: patent US20230096978A1, “MOR RECEPTOR AGONIST COMPOUND, PREPARATION METHOD THEREFOR, AND USE THEREOF” (CHENGDU EASTON BIOPHARMACEUTICALS CO., LTD., priority 2020, published 2023)
Where “and” joins values, the source holds several entries; their conditions need not be identical. Equal values may be shown once. Read-outs that look alike come from different tables or passages of the source.

Experiments:
[1] = molecular target: T1, KOR(Kappa opioid receptor) (Homo sapiens, UniProt P41145); experiment: cAMP agonistic activity assay, KOR stably transfected cell line; type: cell-based
T1 construct: expressed in transfected cells
T1 sequence (P41145 whole entry): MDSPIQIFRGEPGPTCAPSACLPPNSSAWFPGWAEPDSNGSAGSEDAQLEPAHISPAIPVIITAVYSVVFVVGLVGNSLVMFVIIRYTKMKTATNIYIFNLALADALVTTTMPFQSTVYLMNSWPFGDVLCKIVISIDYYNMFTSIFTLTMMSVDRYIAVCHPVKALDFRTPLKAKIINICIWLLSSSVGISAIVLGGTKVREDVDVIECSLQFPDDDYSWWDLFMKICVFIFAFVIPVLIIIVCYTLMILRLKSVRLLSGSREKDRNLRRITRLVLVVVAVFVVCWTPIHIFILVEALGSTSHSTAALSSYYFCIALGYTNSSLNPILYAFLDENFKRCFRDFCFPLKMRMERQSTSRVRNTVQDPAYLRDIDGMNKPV
Experimental: (§1) 1. Test purpose: to detect the agonistic activity of compound samples utilizing MOR (Mu opioid Receptor), KOR(Kappa opioid receptor), and DOR (Delta Opioid Receptor) stably transfected cell lines and using the established cAMP assay detection platform.
(§2) a. All samples were dissolved with DMSO to a storage concentration of 30 mM.
(§3) b. A sample dilution sequence was prepared on a 384-well LDV plate. The first concentration point is 6 mM, with a 3.162-fold serial dilution and a total of 11 concentration points.
(§4) c. The sample dilution sequence was transferred to an test plate (Corning-3824) using the Echo machine, corresponding to transfer of 50 nL per well.
(§5) d. 50 nL of HPE or ZPE was transferred to the corresponding location of the test plate using the Echo machine.
(§6) 2.2 Test operation of cAMP agonistic activity detection
(§7) a. Assay buffer and stimulation buffer (STB) required for the test were formulated.
(§8) b. 5 μL of STB was firstly added to each well of the test plate (with 50 nL of compound already in the well), and then 5 μL of cell suspension was added thereto.
(§9) c. The test plate was incubated in a constant temperature incubator at 37° C.
(§10) d. A standard concentration curve of cAMP was created. The first concentration point was 2848 nM, with a 4-fold serial dilution and a total of 16 detection concentrations, and each concentration point was in triplicate.
(§11) e. cAMP detection reagent (Cisbio #62AM4PEJ) was added to the sample test plate and cAMP standard concentration test plate. 5 μL of D2 reagent was added first, and then 5 μL of Cryptate reagent was added.
(§12) f. The test plates were read on the Envision after being left for 60 minutes at room temperature.

[2] = molecular target: T2, DOR (Delta Opioid Receptor) (Homo sapiens, UniProt P41143); experiment: cAMP agonistic activity assay, DOR stably transfected cell line; type: cell-based
T2 construct: expressed in transfected cells
T2 sequence (P41143 whole entry): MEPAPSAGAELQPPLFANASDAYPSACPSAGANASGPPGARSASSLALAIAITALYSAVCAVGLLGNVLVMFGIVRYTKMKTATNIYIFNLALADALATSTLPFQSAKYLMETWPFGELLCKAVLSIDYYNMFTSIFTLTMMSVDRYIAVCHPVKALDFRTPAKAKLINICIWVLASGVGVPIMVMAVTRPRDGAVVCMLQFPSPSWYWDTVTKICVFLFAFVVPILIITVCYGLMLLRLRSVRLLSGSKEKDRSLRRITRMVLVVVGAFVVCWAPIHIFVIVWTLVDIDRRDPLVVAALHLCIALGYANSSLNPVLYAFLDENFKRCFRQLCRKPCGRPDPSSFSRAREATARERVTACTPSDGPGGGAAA
Experimental: as §1, §2, §3, §4, §5, §6, §7, §8, §9, §10, §11, §12

[3] = system: thermal radiation tail-flick pain threshold in rats; experiment: Rat thermal radiation tail-flick pain threshold test; type: in vivo, SD rats; details: 0.7 mg/kg tail vein injection, Mean ± SEM; for Maximum percentage of analgesia (MPE) 0.5 h: 0.5 h after administration, n = 10; for Maximum percentage of analgesia (MPE) 1 h: 1 h after administration; for Maximum percentage of analgesia (MPE) 2 h: 2 h after administration; for Maximum percentage of analgesia (MPE) 3 h: 3 h after administration
Experimental: 1. Test purpose: to measure the effect of each compound sample on the pain threshold of rats by using the rat thermal radiation tail flick method.
Administered via tail vein injection at an equal dose of 0.7 mg/kg;
The rats (SD rats, SPF grade, with body weight of 220-250g, purchased from Beijing Vital River Laboratory Animal Technology Co., Ltd.) were firstly fixed in a special plastic cylinder, so that their tails were exposed and drooped naturally. Test was performed after the animals were quiet. […] The measured time interval was the tail-flick response latency, which is 3 s to 5 s in normal rats, and those with greater than 5 s or less than 3 s were excluded. Then, measurement was made every 5 min, and the mean of three measurements was taken as the basic nociceptive threshold. If the animal stayed more than 10 s under analgesic effect, the irradiation was stopped and 10 s was used as the upper limit of the tail flick latency to avoid burning the skin by the too-long irradiation. After the rats were given a certain dose of the drug, the pain thresholds of the rats were measured at different times.
After the rats were given a certain dose of the drug, the pain threshold of the rats was measured at 0.5 h, 1 h, 2 h, and 3 h. The maximum percentage of analgesia (% MPE) after administration was calculated, of which the calculation formula was as follows: MPE(%)=(pain threshold after administration−pain threshold before administration)/(10s−pain threshold before administration))×100%

[4] = Pharmacokinetic test after single tail vein injection; type: in vivo; details: SD (Sprague-Dawley), rat, plasma, iv; SD rats, single tail vein injection 2 mg/kg, n = 3
Experimental: 1. Test purpose: to investigate the pharmacokinetic parameters of each compound in the Experimental Example after a single tail vein administration.
Administered via tail vein at an equal dose of 2 mg/kg;
Blood was collected from the jugular vein before administration and 5 min, 10 min, 15 min, 20 min, 30 min, 45 min, 1h, 2h, 4h, 6h, 8h, 24 h after administration. 200 μL of whole blood was taken at each time point and was placed in an anticoagulation tube containing EDTA-K2, and centrifuged at 2000g at a low temperature of 4° C. to separate the plasma. The plasma was transferred to a microcentrifuge tube, and stored in a −80° C. refrigerator for later use.
By establishing a reliable LC/MS/MS analysis method, the blood concentration of each sample was detected, and the pharmacokinetic parameters of each compound were calculated.

[5] = system: colonic motility (glass bead expulsion) in mice; experiment: Mouse colonic glass bead expulsion time test; type: in vivo; details: C57BL/6 mice, 1 mg/kg single tail vein injection, n = 10; for Mean Expulsion Time: beads inserted 20 min after administration, limit 120 min, Mean ± S.E.M.; for Expulsion Time Prolonging Rate (ETPR): relative to solvent control
Experimental: 1. Test purpose: to test the effect of the test compound on the expulsion time of colonic glass beads from mice, and to preliminarily investigate its inhibitory effect on colonic motility.
Administered via tail vein injection at an equal dose of 1 mg/kg;
After 6-7 days of adaptive feeding of C57BL/6 mice, the animals fasted with free access to water for 12-16 hours and then randomly divided into 10 groups, 10 mice per group. Each group employed a single administration via tail vein, and the administration volume was 10 mL/kg. The solvent control group was given a vehicle (normal saline) via tail vein. 20 min after the administration, glass beads preheated to 37° C. with a diameter of 2 mm were pushed into the rectum at a distance of 2 cm through the anus. Timing was immediately started and the animals were placed individually in the observation cage to observe the time for the glass beads to be expulsed (the observation time limit was 120 min). If the glass beads had not been expulsed by the end of the observation period, the animals were euthanized and the rectum was dissected to confirm that the glass beads were still in the intestinal tract.
Colonic Expulsion Rate (CER)=number of animals that successfully expulsed glass beads during the observation period/total number of animals in this group×100%;
Expulsion Time Prolonging Rate (ETPR)=(mean expulsion time of test sample group—mean expulsion time of solvent control group)/mean expulsion time of solvent control group×100%;
Percent Maximum Possible Effect (% Maximum Possible Effect, Percent MPE)=(mean expulsion time of test sample group—mean expulsion time of solvent control group)/(120-mean expulsion time of solvent control group)×100%; Calculation and related statistical processing were performed on the test data using Microsoft Office Excel 2007 and GraphPad Prism software. Unless otherwise specified, the data were shown as mean±standard error (Mean±S.E.M.), and the comparison between groups was performed by one-way ANOVA, and the Dunnett's method was used for pairwise comparison test.

MOR (Mu opioid Receptor) = molecular target: T3, MOR (Mu opioid Receptor) (Homo sapiens, UniProt P35372); experiment: cAMP agonistic activity assay, MOR stably transfected cell line; type: cell-based; details: for EC50 against μ receptor relative to that of TRV130: ratio of EC50 to TRV130
T3 construct: expressed in transfected cells
T3 sequence (P35372 whole entry, species assumed): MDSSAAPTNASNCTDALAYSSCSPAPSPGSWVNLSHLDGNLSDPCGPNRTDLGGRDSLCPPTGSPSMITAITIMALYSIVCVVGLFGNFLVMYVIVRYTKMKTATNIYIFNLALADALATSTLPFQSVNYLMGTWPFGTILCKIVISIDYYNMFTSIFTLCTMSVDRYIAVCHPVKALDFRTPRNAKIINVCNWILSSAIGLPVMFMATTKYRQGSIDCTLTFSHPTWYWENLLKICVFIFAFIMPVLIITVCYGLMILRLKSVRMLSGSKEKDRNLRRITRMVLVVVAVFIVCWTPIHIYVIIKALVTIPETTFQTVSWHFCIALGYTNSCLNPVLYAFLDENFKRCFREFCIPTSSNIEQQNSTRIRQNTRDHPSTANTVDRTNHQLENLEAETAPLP
Experimental: as §1, §2, §3, §4, §5, §6, §7, §8, §9, §10, §11, §12

[6] = agonistic effect, cAMP assay, κ opioid receptor, read-out: EC50 κ
[7] = agonistic effect, cAMP assay, δ opioid receptor, read-out: EC50 δ
[8] = agonistic effect, cAMP assay, μ opioid receptor, read-out: EC50 μ
[9] = n = 10, listed as positive compound, 0.7 mg/kg

| Compound | EC50 [1] | EC50 [2] | Maximum percentage of analgesia (MPE) 0.5 h [3] | Maximum percentage of analgesia (MPE) 1 h ([3]; n = 10, 0.7 mg/kg) | Maximum percentage of analgesia (MPE) 2 h ([3]; n = 10, 0.7 mg/kg) | Maximum percentage of analgesia (MPE) 3 h ([3]; n = 10, 0.7 mg/kg) | AUC(0-t) [4] | Cmax [4] | Tmax [4] | half-life [4] | Mean Expulsion Time [5] | Percent Maximum Possible Effect (Percent MPE) [5] | Expulsion Time Prolonging Rate (ETPR) [5] | EC50 (MOR (Mu opioid Receptor)) | EC50 against μ receptor relative to that of TRV130 (MOR (Mu opioid Receptor)) | EC50 [1, 6] | EC50 [2, 7] | EC50 (MOR (Mu opioid Receptor); [8]) | also measured |
| --- | --- | --- | --- | --- | --- | --- | --- | --- | --- | --- | --- | --- | --- | --- | --- | --- | --- | --- | --- |
| COc1ccc2occ(CNCC[C@@]3(c4ccccn4)CCOC4(CCCC4)C3)c2c1 [Example 1] | 51.4 µM | 65.3 µM | 100.00% | 89.95±7.06% and 89.95% | 86.51±10.06% and 86.51% | 65.91±5.76% and 65.91% | 585 ± 25.9 ng·h/mL | 601 ± 32.5 ng/mL | 6.6 ± 3 min | 190.2 ± 1.2 min | 17.40 ± 5.84^※※♦♦ min | 11.55% | 333.92% | 0.00021 µM | about 1/10 | – | – | – | – |
| c1ccc([C@]2(CCNCc3coc4ccccc34)CCOC3(CCCC3)C2)nc1 [Example 2] | 39.8 µM | 22.2 µM | 100.00% | 82.81±9.77% and 82.81% | 79.23±10.51% and 79.23% | 55.50±6.85% and 55.50% | 379 ± 63.1 ng·h/mL | 309 ± 43 ng/mL | 9 ± 0.6 min | 137 ± 7.8 min | 25.85 ± 5.88^※※♦ min | 18.83% | 544.64% | 0.0029 µM | the same order of magnitude | – | – | – | EC50 against κ receptor relative to that of TRV130 ([1]; ratio of EC50 to TRV130): about 7 times; EC50 against δ receptor relative to that of TRV130 ([2]; ratio of EC50 to TRV130): about 7 times |
| c1ccc([C@]2(CCNCc3coc4ccc(O[C@@H]5CCOC5)cc34)CCOC3(CCCC3)C2)nc1 [Example 3] | – | – | 100.00% | 86.89±7.34% and 86.89% | 82.95±8.69% and 82.95% | 61.46±8.58% and 61.46% | 532 ± 50.6 ng·h/mL | 543 ± 72.8 ng/mL | 9 ± 1.2 min | 177 ± 20.4 min | 18.99 ± 6.55^※※♦♦ min | 12.91% | 373.57% | – | about 1/10 | 56.8 µM | 32.5 µM | 0.00056 µM | – |
| Fc1ccc([C@]2(CCNCc3ccccc3-c3ccncc3)CCOC3(CCCC3)C2)cc1 [Example 4] | – | – | 100.00% | 85.79±9.25% and 85.79% | 83.78±11.31% and 83.78% | 60.92±2.45% and 60.92% | 563 ± 31.8 ng·h/mL | 552 ± 48.7 ng/mL | 10.8 ± 1.8 min | 194 ± 6.6 min | 19.13 ± 3.93^※※♦♦ min | 13.04% | 377.06% | – | about 1/10 | 54.5 µM | 42.7 µM | 0.0045 µM | – |
| COc1ccsc1CNCC[C@@]1(c2ccccn2)CCOC2(CCCC2)C1 [TRV130, oliceridine, reference compound] | 5.77 µM | 3.14 µM | 100.00% | 88.69% | 70.01% | 49.32% | 319 ± 30.6 ng·h/mL | 235 ± 22.7 ng/mL | 8.4 ± 6 min | 56.4 ± 1.8 min | 37.57 ± 4.31^※※ min | 28.93% | 836.91% | – | – | – | – | – | Maximum percentage of analgesia (MPE) 1 h [3, 9]: 88.69±1.52%; Maximum percentage of analgesia (MPE) 2 h [3, 9]: 70.01±8.01%; Maximum percentage of analgesia (MPE) 3 h [3, 9]: 49.32±7.12% |
